Reference: paper PMC5663706, “Diversity oriented biosynthesis via accelerated evolution of modular gene clusters” (Nature Communications, 2017)

Columns and labels:
[1] = biological target: FKBP12 (Homo sapiens, UniProt P62942); test: FKBP12 PPIase inhibition assay; format: biochemical; details: 10 °C, pH 8.0, 6 nM FKBP12, 60 µM SUC-ALPF-pNA, read-out: FKBP12 K i
[2] = tested on: Saccharomyces cerevisiae; test: Saccharomyces cerevisiae MIC assay (microdilution); format: cell-based; details: RPMI 1640 broth, 37 °C, 24 h, read-out: S. cerevisiae MIC
Description: We additionally assessed the rapalogs for antifungal activity using a standard Saccharomyces cerevisiae MIC assay. As expected, activity was similar to that observed for the mTORC1 pathway assay, likely through inhibition of TOR1 and TOR2.
Minimum Inhibitory Concentration (MIC) values for each compound were determined using the microdilution method. Briefly, stock solutions of the 6 test rapalogs (6.4 mg mL^−1 in methanol) were diluted 1:50 in RPMI 1640 broth (Sigma-Aldrich) to a working concentration of 128 µg ml^−1, and serially diluted in broth (1:2) in sterile, polypropylene 96-well plates, 100 µL per well. Saccharomyces cerevisiae was cultured in RPMI 1640 broth, 37 °C, 250 r.p.m., 18 h. […] A volume of 100 µL aliquots of this dilution were added to each well and mixed by gentle trituration. Plates were incubated at 37 °C for 24 h. The concentration of compound at which no visible growth was apparent was determined to be the MIC.

[3] = tested on: mTORC1 pathway (p-S6 formation)
[4] = tested on: human macrophages challenged with B. pseudomallei; format: cell-based

Chain of FKBP12 (P62942 whole entry, species assumed): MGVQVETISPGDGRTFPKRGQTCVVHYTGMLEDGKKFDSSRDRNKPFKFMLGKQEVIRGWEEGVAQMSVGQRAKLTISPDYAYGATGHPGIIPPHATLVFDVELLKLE

| Compound | Ki [1] [nM] | MIC [2] [µg/mL] | IC50 [3] [nM] | survival of human macrophages challenged with B. pseudomallei [4] |
| --- | --- | --- | --- | --- |
| COC1CC2CCC(C)C(O)(O2)C(=O)C(=O)N2CCCCC2C(=O)OC(C(C)CC2CCC(O)CC2)CC(=O)C(C)C=C(C)C(O)C(OC)C(=O)C(C)CC(C)C=CC=CC=C1C (stereo not shown) [Compound 1, 39-desmethoxyrapamycin] | 2.5 | < 0.25 | – | – |
| COC(CC1CCC(C)C(O)(CC(=O)N2CCCCC2C(=O)O)O1)C(C)=CC=CC=CC(C)CC1CCC(O)CC1 (stereo not shown) [Compound 2] | > 1000 | > 64 | 1000 | – |
| C\C1=C/C=C/C=C/[C@@H](C)C[C@@H](C)C(=O)[C@H]2CC[C@@H](CC2)OC(=O)[C@@H]2CCCCN2C(=O)C(=O)[C@]2(O)O[C@@H](CC[C@H]2C)C[C@@H]1O [Compound 3] | 460 | > 64 | > 1900 | – |
| COC1CC2CCC(C)C(O)(CC(=O)N3CCCCC3C(=O)OC(C(C)CC3CCC(O)CC3)CC(=O)C(C)CC(C)C=CC=CC=C1C)O2 (stereo not shown) [Compound 5] | 370 | < 64 | 300 | – |
| COC1CC2CCC(C)C(O)(O2)C(=O)C(=O)N2CCCCC2C(=O)OC(C(C)CC2CCC(O)CC2)CC=C(C)C(O)CC(=O)C(C)CC(C)C=CC=CC=C1C (stereo not shown) [Compound 7] | 7.9 | < 2 | 100 | increase the survival |
| CO[C@H]1C[C@@H]2CC[C@@H](C)[C@@](O)(O2)C(=O)C(=O)N2CCCC[C@H]2C(=O)O[C@H]([C@H](C)C[C@H]2CC[C@H](O)CC2)CC(O)CC(=O)[C@H](C)/C=C(\C)[C@@H](O)CC(=O)[C@H](C)C[C@H](C)/C=C/C=C/C=C/1C (stereo partly shown) [Compound 8] | 6.5 | < 2 | – | – |
| CO[C@H]1C[C@@H]2CC[C@@H](C)[C@@](O)(O2)C(=O)C(=O)N2CCCC[C@H]2C(=O)O[C@H]([C@H](C)C[C@@H]2CC[C@@H](O)[C@H](OC)C2)CC(=O)[C@H](C)/C=C(\C)[C@@H](O)[C@@H](OC)C(=O)[C@H](C)C[C@H](C)/C=C/C=C/C=C/1C [Rapamycin, reference compound] | – | < 0.25 | < 1 | – |
